{"source": "patent US20200246364A1", "about": "“MEDICAL APPLICATION OF COMPOSITION OF FRUCTOSE-1,6-BISPHOSPHATE AND BLOOD CONCENTRATION STABILIZER THEREOF” (ZHEJIANG UNIVERSITY, priority 2017, published 2020)", "key": {"mouse tumor models": {"tested_on": "mouse tumor models", "conditions": "injected intraperitoneally; cited from earlier work"}, "U87MG [1]": {"tested_on": "U87MG", "assay": "13C-glucose tracing: glycolysis, pentose phosphate, one-carbon and nucleic acid synthesis intermediates (LC-MS/MS)", "format": "cell-based, human", "conditions": "1.6 mM, 36 h", "method": "Human glioma cell strain (U87MG) was incubated in a medium containing ^13C-labeled glucose (U-^13C-Glc) and treated with 1.6 mM of trisodium fructose-1,6-bisphosphate for 36 h, and then, intermediate products of intracellular glycolysis pathway, pentose phosphate pathway, “one-carbon unit” metabolic pathway, and nucleic acid de novo synthesis pathway were measured using liquid-mass spectrometry (LC-MS/MS)."}, "U87MG [2]": {"tested_on": "U87MG", "assay": "13C-glucose tracing: tricarboxylic acid circulation intermediates, derived amino acids, nucleotide synthesis (LC-MS/MS)", "format": "cell-based, human", "conditions": "1.6 mM, 36 h", "method": "Human glioma cell strain (U87MG) was incubated in a medium containing ^13C-labeled glucose (U-^13C-Glc) and treated with 1.6 mM of trisodium fructose-1,6-bisphosphate for 36 h, and then using liquid-mass spectrometry (LC-MS/MS), intracellular tricarboxylic acid circulation intermediates, tricarboxylic acid circulation intermediates-derived amino acids and nucleotide de novo synthesis pathway intermediates were measured."}, "C6": {"tested_on": "C6", "assay": "Intracellular glycolytic intermediates (LC-MS/MS) and FBP in culture medium", "format": "cell-based, rat", "conditions": "C6, 1.6 mM, 36 h", "method": "Rat glioma cell strains (C6), human glioma cell strains (U87-MG, U-251, SHG-44) and patient-derived glioma cells (tumor 1, tumor 3) were incubated in a culture medium containing 1.6 mM of trisodium fructose-1,6-bisphosphate, and after 36 h, levels of glycolytic intermediates including glucose-6-phosphate G6P, fructose-1,6-bisphosphate FBP, glyceraldehyde 3-phosphate (GAP), dihydroxyacetone phosphate (DHAP), and […] 3-phosphoglyceric acid PGA in respective cells were measured by using LC-MS/MS; and additionally, the levels of fructose-1,6-bisphosphate in each glioma cell strain at 12 h and 36 h were measured."}, "[3]": {"tested_on": "Normal human astrocytes (HA)", "assay": "Regulation of metabolism in normal human astrocytes", "format": "cell-based", "conditions": "vs control group", "method": "Normal human astrocytes (HA) were incubated in culture media containing different concentrations of trisodium fructose-1,6-bisphosphate salt (0 mM, 0.25 mM, 0.5 mM, 1 mM), and lactic acid level in the culture media and intracellular ATP level were measured after 12 h and 24 h.\nThe normal human astrocytes (HA) were incubated in culture media containing different concentrations of trisodium fructose-1,6-bisphosphate salt (0 mM, 0.25 mM, 0.5 mM, 1 mM, 2 mM, 2.5 mM), and after 36 h, reduced glutathione GSH level and a ratio of NADPH/NADP+ in the group of […] trisodium fructose-1,6-bisphosphate in the cells were measured. […] (FIG. 1d, e)"}, "KNS-89": {"tested_on": "KNS-89", "assay": "Mitochondrial oxidative phosphorylation in glioma cells (ATP/ADP, NADH/NAD+, ATP)", "format": "cell-based, human"}}, "data": [{"molecule": "O=C(COP(=O)(O)O)[C@@H](O)[C@H](O)[C@H](O)COP(=O)(O)O", "note": "[FBP, fructose-1,6-bisphosphate]", "values": [{"measurement": "effective dose for mouse tumor models", "setting": "mouse tumor models", "value": "400-450 mg/kg/time"}, {"measurement": "glycine (Gly) (M+2) produced by serine, relative to control group 1", "setting": "U87MG [1]", "value": "0.63±0.06"}, {"measurement": "serine (Ser) (M+3) produced by U-13C-Glc, relative to control group 1", "setting": "U87MG [1]", "value": "1.57±0.04"}, {"measurement": "Proportions of 13C-labeled ribose in free nucleosides and nucleotides, column F6P", "setting": "U87MG [1]; CON 13.03 ± 0.38", "value": "2.79 ± 0.14"}, {"measurement": "Proportions of 13C-labeled ribose in free nucleosides and nucleotides, column GAP", "setting": "U87MG [1]; CON 31.97 ± 1.11", "value": "11.31 ± 1.75"}, {"measurement": "Proportions of 13C-labeled ribose in free nucleosides and nucleotides, column FBP", "setting": "U87MG [1]; CON 41.00 ± 4.28", "value": "34.99 ± 1.63"}, {"measurement": "Proportions of 13C-labeled ribose in free nucleosides and nucleotides, column PEP", "setting": "U87MG [1]; CON 59.40 ± 1.11", "value": "13.71 ± 0.54"}, {"measurement": "Proportions of 13C-labeled ribose in free nucleosides and nucleotides, column Lac", "setting": "U87MG [1]; CON 61.60 ± 1.95", "value": "30.70 ± 2.11"}, {"measurement": "proportion of the 13C-labeled 5-phosphate ribose (R5P)", "setting": "U87MG [1]; control group 68.96±5.03%", "value": "17.32±1.23", "unit": "%"}, {"measurement": "Relative level of F6P (compared with the control group)", "setting": "U87MG [1]; U-13C-Glc", "value": "2.06 ± 0.04"}, {"measurement": "Relative level of FBP (compared with the control group)", "setting": "U87MG [1]; U-13C-Glc", "value": "5.01 ± 0.34"}, {"measurement": "Relative level of GAP (compared with the control group)", "setting": "U87MG [1]; U-13C-Glc", "value": "4.27 ± 0.07"}, {"measurement": "Relative level of Lac (compared with the control group)", "setting": "U87MG [1]; U-13C-Glc", "value": "1.06 ± 0.02 ^N.S."}, {"measurement": "Relative level of PEP (compared with the control group)", "setting": "U87MG [1]; U-13C-Glc", "value": "8.00 ± 0.32"}, {"measurement": "Relative level of Asp (compared with the control group)", "setting": "U87MG [2]", "value": "0.16 ± 0.07"}, {"measurement": "Relative level of Glu (compared with the control group)", "setting": "U87MG [2]", "value": "0.35 ± 0.04"}, {"measurement": "Relative level of OAA (compared with the control group)", "setting": "U87MG [2]", "value": "1.87 ± 0.04"}, {"measurement": "Relative level of α-KG (compared with the control group)", "setting": "U87MG [2]", "value": "1.61 ± 0.01"}, {"measurement": "Proportion of 13C-labeled purine/pyrimidine ring in A", "setting": "U87MG [2]; CON 12.41 ± 1.19", "value": "7.70 ± 1.50"}, {"measurement": "Proportion of 13C-labeled purine/pyrimidine ring in U", "setting": "U87MG [2]; CON 20.58 ± 2.30", "value": "8.33 ± 0.90"}, {"measurement": "Proportion of 13C-labeled purine/pyrimidine ring in ATP", "setting": "U87MG [2]; CON 38.26 ± 1.50", "value": "23.77 ± 0.57"}, {"measurement": "Proportion of 13C-labeled purine/pyrimidine ring in UTP", "setting": "U87MG [2]; CON 50.67 ± 0.96", "value": "18.19 ± 0.87"}, {"measurement": "Proportion of 13C-labeled purine/pyrimidine ring in G", "setting": "U87MG [2]; CON 53.75 ± 1.47", "value": "41.83 ± 4.06"}, {"measurement": "Increase folds of intracellular DHAP (compared with the control group)", "setting": "C6", "value": 66.04, "unit": "folds"}, {"measurement": "Increase folds of intracellular F6P (compared with the control group)", "setting": "C6", "value": 19.89, "unit": "folds"}, {"measurement": "Increase folds of intracellular FBP (compared with the control group)", "setting": "C6", "value": 92.22, "unit": "folds"}, {"measurement": "Increase folds of intracellular GAP (compared with the control group)", "setting": "C6", "value": 132.85, "unit": "folds"}, {"measurement": "Increase folds of intracellular PGA (compared with the control group)", "setting": "C6", "value": 2.2, "unit": "folds"}, {"measurement": "intracellular protein level of Cyto C (Western Blot)", "setting": "[3]; 0.8 mM, 36 h", "value": "significantly increased"}, {"measurement": "intracellular protein levels of PFKFB3 and LDH5 (Western Blot)", "setting": "[3]; 0.8 mM, 36 h", "value": "significantly reduced"}, {"measurement": "ratio of NADPH/NADP+", "setting": "[3]; 1.6 mM, 36 h", "value": "significantly increased"}, {"measurement": "lactic acid level in the culture media", "setting": "[3]; 0.25, 0.5, 1 mM, 12 h and 24 h", "value": "decreased significantly"}, {"measurement": "intracellular ATP level", "setting": "[3]; 0.25, 0.5, 1 mM, 24 h", "value": "increased significantly"}, {"measurement": "reduced glutathione GSH level", "setting": "[3]; 0.25-2.5 mM, 36 h", "value": "significantly increased"}, {"measurement": "ratio of ATP/ADP (CON = 1.00)", "setting": "KNS-89; KNS-89, 0.8 mM or 1.6 mM, 36 h", "value": "2.91 ± 0.03"}, {"measurement": "ratio of NADH/NAD+ (CON = 1.00)", "setting": "KNS-89; KNS-89, 0.8 mM or 1.6 mM, 36 h", "value": "9.44 ± 0.75"}, {"measurement": "ATP level", "setting": "KNS-89; KNS-89, 36 h, vs control group", "value": "significantly increased"}]}]}
